Assay results published in publication PMC10146558, “Highly Cytotoxic Copper(II) Mixed-Ligand Quinolinonato Complexes: Pharmacokinetic Properties and Interactions with Drug Metabolizing Cytochromes P450” (Pharmaceutics, 2023).
“And” between values parts separate entries of the source, which are not always exact repeats. Equal values may be shown once. Read-outs that look alike come from different tables or passages of the source.

Experiments:
[1] = Microsomal stability assay; type: in vitro ADME; conditions: human liver microsomes, NADPH-generating system, 5.74 μM
Method: Pharmacological properties of the complexes 1 and 2, including stability in plasma, microsomal stability, binding to plasma proteins, and permeability through an artificial membrane, were tested under in vitro conditions and according to methods described in previous reports. Analysis of the samples was performed using Agilent RapidFire 300 High-Throughput Mass Spectrometry System (Agilent Technologies, Wakefield, MA, USA) with subsequent detection using the mass spectrometer Qtrap 5500 (AB Sciex, Concord, Toronto, ON, Canada), abbreviation RF-MS. The samples were aspirated directly from the plates into a 10 μL sample loop and passed through a C4 cartridge with solvent A (5% acetonitrile, 95% water, 0.1% formic acid) at a flow rate of 1.5 mL/min for 3 s. After the desalting step, analytes retained on the cartridge were eluted with solvent B (95% acetonitrile, 5% water, 0.1% formic acid) in the mass spectrometer at a flow rate of 0.4 mL/min for 5 s. The mass spectrometry of the samples was carried out using electrospray ionisation in the positive ion mode. Daughter ion peaks were identified using a multiple-reaction monitoring protocol.
According to the protocol, reaction mixtures included tested compound (5.74 μM), human liver microsomes, NADPH-generating system consisting of NADP^+, isocitrate dehydrogenase, isocitric acid, and MgSO4 in 100 mM K/PO4 buffer. Assay was performed at 0, 15, 30, and 60 min. Reactions were terminated using acetonitrile–methanol (2:1) mixture. After centrifugation, the supernatant was lyophilized and analysed by RF-MS. The values of intrinsic clearance were calculated using the formula: CLint = 0.693/t1/2/mg microsome protein per mL of reaction.

human bactosomes CYP3A4 = molecular target: T1, human bactosomes CYP3A4 (Homo sapiens, UniProt P08684); assay: Isothermal titration calorimetry, bactosomes CYP3A4; type: binding; conditions: 25 °C; for n, CYP3A4B: ITC stoichiometry, pH 7.4; for Ka, CYP3A4B / ΔG, CYP3A4B / ΔH, CYP3A4B / ΔS, CYP3A4B / Kd: ITC, pH 7.4, 1% DMSO; for Kd: read-out: Kd, CYP3A4B
T1 construct: purchased Cypex (Dundee, UK); host or cells: bacterial membranes ('bactosomes')
T1 sequence (P08684 whole entry): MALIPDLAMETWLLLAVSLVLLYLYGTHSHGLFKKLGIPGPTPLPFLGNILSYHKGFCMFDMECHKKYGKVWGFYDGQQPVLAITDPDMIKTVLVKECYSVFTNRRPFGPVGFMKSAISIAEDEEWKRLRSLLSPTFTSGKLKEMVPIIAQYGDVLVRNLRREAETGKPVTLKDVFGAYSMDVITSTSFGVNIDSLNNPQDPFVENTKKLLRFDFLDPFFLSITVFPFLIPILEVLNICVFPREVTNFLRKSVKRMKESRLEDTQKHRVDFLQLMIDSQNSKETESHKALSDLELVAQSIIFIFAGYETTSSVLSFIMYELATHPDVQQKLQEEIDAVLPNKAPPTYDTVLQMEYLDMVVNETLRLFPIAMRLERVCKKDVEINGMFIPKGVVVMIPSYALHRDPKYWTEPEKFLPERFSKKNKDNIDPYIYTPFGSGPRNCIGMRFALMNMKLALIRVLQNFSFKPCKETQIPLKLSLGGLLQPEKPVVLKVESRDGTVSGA
Method: (§1) The interactions of the compounds with selected forms of cytochrome P450, i.e., human bactosomes CYP1A2, CYP2A6, CYP3A4, and recombinant human CYP3A4, were studied using isothermal titration calorimetry (ITC). ITC experiments were performed at 25 °C with a Nano ITC Low Volume (TA Instruments, New Castle, DE, USA). During all measurements, 20 injections of 16µM of the studied compound (2.5 µL each) were titrated into 250 µL of protein (2 µM) with time intervals of 300 s and a stirring speed of 250 rpm. All ITC experiments were conducted with degassed buffered solutions (100 mM phosphate buffer, pH 7.4) in the presence of 1% DMSO. Control experiments included the titration of each complex solution into a buffer. The corrected data refer to experimental data after subtraction of the buffer control data from the compounds data. The resulting thermograms were analysed using the “Independent” model within the NanoAnalyze software (TA Instruments, New Castle, DE, USA).

[2] = Parallel artificial membrane permeability assay (PAMPA); type: in vitro ADME; conditions: category according to log Papp
Method: Pharmacological properties of the complexes 1 and 2, including stability in plasma, microsomal stability, binding to plasma proteins, and permeability through an artificial membrane, were tested under in vitro conditions and according to methods described in previous reports. Analysis of the samples was performed using Agilent RapidFire 300 High-Throughput Mass Spectrometry System (Agilent Technologies, Wakefield, MA, USA) with subsequent detection using the mass spectrometer Qtrap 5500 (AB Sciex, Concord, Toronto, ON, Canada), abbreviation RF-MS. […]
PAMPA was performed with the Millipore MultiScreen filter MultiScreen-IP Durapore 0.45-μm plates and receiver plates (Merck Millipore, Burlington, MA, USA). […] The permeation of compounds across a filter membrane (activation by 10% lecithin in dodecane) was quantified by RF/MS after 18 h incubation at room temperature. The apparent permeability, logPe, was calculated from the following equation: logPe = log{C× − ln(1 − drugA/drugE)}; C = (VA × VD)/{(VD + VA) × A × T}, where VD and VA are the volumes of the donor and acceptor compartments, respectively; A is the active surface area of the membrane; T is the time of the incubation in seconds; and drugA or drugE represents the concentration of the tested compounds in the acceptor compartment and in the solution in theoretical equilibrium.

CYP2C9 = molecular target: T2, CYP2C9 (Homo sapiens, UniProt P11712); assay: CYP2C9 activity (diclofenac 4′-hydroxylation) in human liver microsomes; type: biochemical; conditions: for Type of inhibition, CYP2C9 / Ki: Dixon and Lineweaver–Burk plots; for Ki: substrate ½ Km to 4 Km; for IC50: human liver microsomes, diclofenac 4′-hydroxylation
T2 construct: Cryopreserved pooled human liver microsomes were obtained from Xenotech; tissue Xenotech (Lenexa, KS, USA); host or cells: pooled human liver microsomes
T2 sequence (P11712 whole entry): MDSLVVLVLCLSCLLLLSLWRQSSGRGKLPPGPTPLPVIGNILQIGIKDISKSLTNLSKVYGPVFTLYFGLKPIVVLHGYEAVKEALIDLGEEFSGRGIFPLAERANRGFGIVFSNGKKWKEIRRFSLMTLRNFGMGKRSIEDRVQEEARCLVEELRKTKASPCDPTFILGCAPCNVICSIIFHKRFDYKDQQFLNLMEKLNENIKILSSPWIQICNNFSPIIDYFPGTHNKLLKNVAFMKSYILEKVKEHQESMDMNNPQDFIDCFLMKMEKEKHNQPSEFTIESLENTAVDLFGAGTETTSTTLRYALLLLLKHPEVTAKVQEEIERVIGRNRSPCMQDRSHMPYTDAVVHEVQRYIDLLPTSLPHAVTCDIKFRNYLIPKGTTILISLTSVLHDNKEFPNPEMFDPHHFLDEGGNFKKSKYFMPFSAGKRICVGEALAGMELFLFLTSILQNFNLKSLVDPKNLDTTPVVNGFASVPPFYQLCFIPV
Method: (§2) For each enzyme assay, the preliminary experiments to determine Michaelis constant (Km) and limiting velocity (Vmax) were performed to calculate the time of incubation (the specified time for which the reaction is still linear) and the values of substrate concentration (in the range corresponding to the value of Km).
(§3) The reaction mixtures were buffered by 0.1 M potassium phosphate buffer (pH 7.4) and contained a NADPH-generating system consisting of the isocitrate dehydrogenase (6 U/mL), NADP^+ (0.5 mM), isocitric acid (4 mM), and MgSO4 (5 mM). The final concentration levels of complexes were obtained by diluting a 10 mM solution with dimethyl sulfoxide (DMSO). It is known that DMSO can in some cases inhibit P450; the following measures were thus applied: (a) control samples containing organic solvent without the tested compounds were prepared and used as references; (b) DMSO levels were maintained below 0.1% to minimise the inhibition. Inhibition experiments were performed using five concentration levels of the tested compounds in the range of 10–100 µM. The maximum concentration was chosen so that in the case of inhibition, it would be possible to determine the inhibitory effect of the complexes and characterise them by determining the IC50 value. Additionally, an inhibitor-free control was used as a reference. Incubations were executed in two independent batches, and the samples were prepared and measured in triplicate at 37 °C. Analyses of the metabolites formed from the specific substrates were performed by HPLC using the Prominence system (Shimadzu, Kyoto, Japan) equipped with a LiChroCART 250-4 LiChrospher 100 RP-18 column, Chromolith® HighResolution RP-18 end-capped column (Merck, Darmstadt, Germany), or Kinetex Biphenyl column (Phenomenex, Torrace, CA, USA).
(§4) The apparent Ki values were determined by additional measurements using substrate concentrations corresponding to 1/2 Km, Km, 2 Km, and 4 Km in the case of inhibition. The type of model was selected on the basis of the Lineweaver–Burk and Dixon plots. The values of IC50 were obtained by analysing the plot of the percentage of activity remaining after inhibition versus the logarithm of the inhibitor concentration using the GraphPad Prism 6 software (La Jolla, CA, USA).

[3] = test system: human liver microsomal cytochrome P450s; conditions: pH 7.4
Method: (§5) The cuvette contained microsomes diluted to final concentration of CYP 1 µM in 50 mM potassium phosphate buffer (pH 7.4). The tested compounds were dissolved in the same buffer, and their concentrations in the experiments ranged from 0.002 to 33.310 µM. The UV-Visible spectra were recorded at room temperature by repetitive scanning between 300 and 700 nm using Varian 500 UV/VIS spectrophotometer (Agilent Technologies, Wakefield, MA, USA). Changes of absorbance in the range of the Soret’s region (380–450 nm) were plotted against the concentration of the studied compounds. Data were analysed using GraphPad Prism 6 software (La Jolla, CA, USA).

human bactosomes CYP1A2 = molecular target: T3, human bactosomes CYP1A2 (Homo sapiens, UniProt P05177); assay: Isothermal titration calorimetry, bactosomes CYP1A2; type: binding; conditions: 25 °C, 100 mM phosphate buffer pH 7.4, 1% DMSO
T3 construct: purchased BD Biosciences (Franklin Lakes, NJ, USA); host or cells: bacterial membranes ('bactosomes')
T3 sequence (P05177 1-516): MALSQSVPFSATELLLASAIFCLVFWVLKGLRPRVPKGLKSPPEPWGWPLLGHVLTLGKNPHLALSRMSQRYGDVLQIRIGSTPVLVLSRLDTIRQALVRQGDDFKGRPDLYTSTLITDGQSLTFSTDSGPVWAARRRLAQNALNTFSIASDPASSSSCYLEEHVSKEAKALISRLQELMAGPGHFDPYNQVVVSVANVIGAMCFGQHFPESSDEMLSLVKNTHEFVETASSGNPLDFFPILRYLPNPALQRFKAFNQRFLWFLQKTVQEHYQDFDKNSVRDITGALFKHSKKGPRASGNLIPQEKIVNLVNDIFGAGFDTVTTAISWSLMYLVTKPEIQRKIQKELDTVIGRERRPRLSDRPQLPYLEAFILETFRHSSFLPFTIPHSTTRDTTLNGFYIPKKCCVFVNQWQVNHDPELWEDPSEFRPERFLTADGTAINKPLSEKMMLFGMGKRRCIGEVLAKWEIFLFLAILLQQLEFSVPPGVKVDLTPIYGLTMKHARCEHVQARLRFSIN
Method: as §1

CYP2C19 = molecular target: T4, CYP2C19 (Homo sapiens, UniProt P33261); assay: CYP2C19 activity ((S)-mephenytoin 4′-hydroxylation) in human liver microsomes; type: biochemical; conditions: for Type of inhibition, CYP2C19 / Ki: Dixon and Lineweaver–Burk plots; for Ki: substrate ½ Km to 4 Km; for IC50: human liver microsomes, (S)-mephenytoin 4′-hydroxylation
T4 construct: Cryopreserved pooled human liver microsomes were obtained from Xenotech; tissue Xenotech (Lenexa, KS, USA); host or cells: pooled human liver microsomes
T4 sequence (P33261 whole entry): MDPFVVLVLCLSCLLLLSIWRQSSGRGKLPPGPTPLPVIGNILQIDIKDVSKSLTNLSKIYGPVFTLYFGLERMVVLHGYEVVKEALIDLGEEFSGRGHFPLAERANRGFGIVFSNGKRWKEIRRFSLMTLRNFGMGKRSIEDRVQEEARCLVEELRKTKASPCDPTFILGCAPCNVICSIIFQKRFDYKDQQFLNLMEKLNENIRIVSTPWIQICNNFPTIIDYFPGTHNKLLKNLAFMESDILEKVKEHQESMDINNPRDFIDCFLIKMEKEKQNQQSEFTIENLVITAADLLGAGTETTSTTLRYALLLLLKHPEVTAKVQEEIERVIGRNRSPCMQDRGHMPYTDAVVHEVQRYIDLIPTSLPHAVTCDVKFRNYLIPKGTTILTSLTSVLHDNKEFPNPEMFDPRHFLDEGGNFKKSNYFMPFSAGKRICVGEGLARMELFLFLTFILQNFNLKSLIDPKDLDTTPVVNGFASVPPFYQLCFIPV
Method: as §2, §3, §4

[4] = test system: human liver microsomal cytochrome P450s; assay: Difference spectra (UV-visible spectral titration) with human liver microsomes; conditions: read-out: Ks (spectral binding constant); spectral differences at 386 nm, CYP 1 µM, pH 7.4, room temperature
Method: as §5

Cc1cc2cccnc2c2ncccc12.O.O=[N+]([O-])[O-].O=c1c([O-])c(-c2ccccc2)[nH]c2ccccc12.[Cu+2] [complex 1]
% Compound remaining, Microsomal stability, 15 min [1]: 99.4 ± 3.5%
% Compound remaining, Microsomal stability, 30 min [1]: 80.7 ± 2.8%
% Compound remaining, Microsomal stability, 60 min [1]: 78% and 78.1 ± 1.7%
n, CYP3A4B (human bactosomes CYP3A4): 0.911
Ka, CYP3A4B (human bactosomes CYP3A4): 1.92e+07 M⁻¹
ΔG, CYP3A4B (human bactosomes CYP3A4): −41,558.7 J/mol
ΔH, CYP3A4B (human bactosomes CYP3A4): -19.13 kcal/mol
ΔS, CYP3A4B (human bactosomes CYP3A4): −129 J/mol.K
Kd (human bactosomes CYP3A4): 0.0521 µM
PAMPA Category [2]: Low (those with log Papp < −5 were considered poorly permeable)
Type of inhibition, CYP2C9 (CYP2C9): non-competitive
Ki (CYP2C9): 2.56 ± 0.37 µM
IC50 (CYP2C9): 16.3 µM
Kd [3]: 7.59 ± 1.8 µM
ITC interaction with CYP1A2B (human bactosomes CYP1A2): no interaction
Type of inhibition, CYP2C19 (CYP2C19): non-competitive
Ki (CYP2C19): 4.15 ± 0.71 µM
IC50 (CYP2C19): 61.2 µM

Cc1cc2cccnc2c2ncccc12.F[B-](F)(F)F.O.O=c1c([O-])c(-c2ccccc2)[nH]c2ccccc12.[Cu+2] [complex 2]
% Compound remaining, Microsomal stability, 15 min [1]: 76.5 ± 2.7%
% Compound remaining, Microsomal stability, 30 min [1]: 76.2 ± 2.7%
% Compound remaining, Microsomal stability, 60 min [1]: 70% and 69.7 ± 2.4%
n, CYP3A4B (human bactosomes CYP3A4): 0.859
Ka, CYP3A4B (human bactosomes CYP3A4): 2.17e+07 M⁻¹
ΔG, CYP3A4B (human bactosomes CYP3A4): −41,881.2 J/mol
ΔH, CYP3A4B (human bactosomes CYP3A4): -14.99 kcal/mol
ΔS, CYP3A4B (human bactosomes CYP3A4): −69.86 J/mol.K
Kd (human bactosomes CYP3A4): 0.0461 µM
PAMPA Category [2]: Low (those with log Papp < −5 were considered poorly permeable)
Type of inhibition, CYP2C9 (CYP2C9): fully non-competitive
Ki (CYP2C9): 0.92 ± 0.25 µM
CYP2C9 activity remaining, % of the control (CYP2C9; at 100 μM): 7%
IC50 (CYP2C9): 37.2 µM
Kd [4]: 8.56 ± 1 µM
ITC interaction with CYP1A2B (human bactosomes CYP1A2): no interaction
Type of inhibition, CYP2C19 (CYP2C19): fully non-competitive
Ki (CYP2C19): 9.14 ± 0.8 µM
CYP2C19 activity remaining, % of the basal activity (CYP2C19; at 100 μM): 36%
IC50 (CYP2C19): 77.1 µM
